Assay results reported in ChEMBL document CHEMBL5143693, “Design and synthesis of endocannabinoid enzyme inhibitors for ocular indications” (Bioorg Med Chem Lett, 2022).
pIC50: −log10 of the molar value. Active and inactive are the calls of the source. The rule behind the calls is not given here.

How the values were obtained:
[1] = target: T1, Fatty-acid amide hydrolase 1 (Homo sapiens, UniProt O00519); assay: Inhibition of FAAH (unknown origin) by fluorescence based method
T1 sequence (O00519 whole entry): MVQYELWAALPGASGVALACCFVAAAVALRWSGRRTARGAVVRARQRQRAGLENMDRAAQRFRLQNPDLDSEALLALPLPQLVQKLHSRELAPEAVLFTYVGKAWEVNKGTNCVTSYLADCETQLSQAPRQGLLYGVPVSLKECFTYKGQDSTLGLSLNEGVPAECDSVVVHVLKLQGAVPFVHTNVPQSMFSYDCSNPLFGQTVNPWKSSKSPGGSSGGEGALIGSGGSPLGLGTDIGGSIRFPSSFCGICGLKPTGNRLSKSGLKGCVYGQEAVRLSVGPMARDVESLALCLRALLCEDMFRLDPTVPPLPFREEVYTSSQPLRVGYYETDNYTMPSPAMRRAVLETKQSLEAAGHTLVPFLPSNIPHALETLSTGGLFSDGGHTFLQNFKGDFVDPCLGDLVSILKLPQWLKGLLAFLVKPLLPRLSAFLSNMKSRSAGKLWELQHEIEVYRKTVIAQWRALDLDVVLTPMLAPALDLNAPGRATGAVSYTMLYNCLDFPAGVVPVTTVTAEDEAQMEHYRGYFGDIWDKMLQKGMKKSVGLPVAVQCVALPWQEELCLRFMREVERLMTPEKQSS

[2] = Permeability of the compound by measuring lambda maximum incubated for 18 hrs by PAMPA method; assay type: ADME; settings: read-out: permeability
Monoglyceride lipase = target: T2, Monoglyceride lipase (Homo sapiens, UniProt Q99685); assay: Inhibition of MAGL (unknown origin) by fluorescence based method
T2 sequence (Q99685 whole entry): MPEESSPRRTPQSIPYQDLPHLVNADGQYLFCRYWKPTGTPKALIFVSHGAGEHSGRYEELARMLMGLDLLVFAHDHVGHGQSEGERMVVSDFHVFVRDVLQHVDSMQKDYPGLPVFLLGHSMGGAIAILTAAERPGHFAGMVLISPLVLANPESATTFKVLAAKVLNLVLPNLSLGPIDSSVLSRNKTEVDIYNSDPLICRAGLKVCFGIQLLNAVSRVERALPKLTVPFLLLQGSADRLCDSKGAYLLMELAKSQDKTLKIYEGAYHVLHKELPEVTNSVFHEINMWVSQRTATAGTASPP

[3] = target: T3, Fatty-acid amide hydrolase 1 (Homo sapiens) (UniProt O00519); assay: Inhibition of recombinant human FAAH assessed as blockage of […] labelling at 100 uM by ABPP assay
T3 sequence (whole entry): T1 sequence (O00519 whole entry)

[4] = target: T4, Monoglyceride lipase (Homo sapiens) (UniProt Q99685); assay: Inhibition of recombinant human MAGL assessed as blockage of […] labelling at 100 uM by ABPP assay
T4 sequence (whole entry): T2 sequence (Q99685 whole entry)

[5] = target: T5, Fatty-acid amide hydrolase 1 (Rattus norvegicus) (UniProt P97612); assay: Inhibition of FAAH in rat eye homogenate assessed as blockage of […] labelling by ABPP assay; assay type: tissue-based
T5 sequence (whole entry): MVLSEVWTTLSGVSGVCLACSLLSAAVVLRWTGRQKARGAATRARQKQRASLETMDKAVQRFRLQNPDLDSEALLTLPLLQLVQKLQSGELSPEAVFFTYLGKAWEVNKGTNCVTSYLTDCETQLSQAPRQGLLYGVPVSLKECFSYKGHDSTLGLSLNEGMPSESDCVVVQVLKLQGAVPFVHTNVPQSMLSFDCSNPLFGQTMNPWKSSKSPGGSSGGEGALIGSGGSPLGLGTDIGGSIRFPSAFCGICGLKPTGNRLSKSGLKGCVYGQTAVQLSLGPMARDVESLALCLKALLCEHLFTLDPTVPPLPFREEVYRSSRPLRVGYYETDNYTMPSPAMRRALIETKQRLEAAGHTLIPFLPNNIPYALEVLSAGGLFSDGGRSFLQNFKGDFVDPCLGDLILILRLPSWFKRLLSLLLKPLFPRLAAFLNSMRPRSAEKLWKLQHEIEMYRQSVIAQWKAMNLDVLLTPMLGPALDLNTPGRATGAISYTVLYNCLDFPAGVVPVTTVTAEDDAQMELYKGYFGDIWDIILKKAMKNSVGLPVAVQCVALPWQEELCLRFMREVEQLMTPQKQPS

[6] = target: T6, Monoglyceride lipase (Rattus norvegicus) (UniProt Q8R431); assay: Inhibition of MAGL in rat eye homogenate assessed as blockage of […] labelling by ABPP assay; assay type: tissue-based
T6 sequence (whole entry): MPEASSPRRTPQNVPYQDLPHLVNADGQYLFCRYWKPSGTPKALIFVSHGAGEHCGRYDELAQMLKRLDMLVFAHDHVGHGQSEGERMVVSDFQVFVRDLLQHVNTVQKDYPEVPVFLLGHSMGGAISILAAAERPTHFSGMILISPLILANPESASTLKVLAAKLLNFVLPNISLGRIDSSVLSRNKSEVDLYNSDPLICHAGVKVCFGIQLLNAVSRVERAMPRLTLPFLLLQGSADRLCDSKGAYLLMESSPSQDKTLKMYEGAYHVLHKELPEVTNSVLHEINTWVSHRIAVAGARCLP

[7] = target: T7, Fatty-acid amide hydrolase 1 (Mus musculus, UniProt O08914); assay: Inhibition of mouse brain FAAH by competitive ABPP assay; assay type: tissue-based
T7 sequence (O08914 whole entry): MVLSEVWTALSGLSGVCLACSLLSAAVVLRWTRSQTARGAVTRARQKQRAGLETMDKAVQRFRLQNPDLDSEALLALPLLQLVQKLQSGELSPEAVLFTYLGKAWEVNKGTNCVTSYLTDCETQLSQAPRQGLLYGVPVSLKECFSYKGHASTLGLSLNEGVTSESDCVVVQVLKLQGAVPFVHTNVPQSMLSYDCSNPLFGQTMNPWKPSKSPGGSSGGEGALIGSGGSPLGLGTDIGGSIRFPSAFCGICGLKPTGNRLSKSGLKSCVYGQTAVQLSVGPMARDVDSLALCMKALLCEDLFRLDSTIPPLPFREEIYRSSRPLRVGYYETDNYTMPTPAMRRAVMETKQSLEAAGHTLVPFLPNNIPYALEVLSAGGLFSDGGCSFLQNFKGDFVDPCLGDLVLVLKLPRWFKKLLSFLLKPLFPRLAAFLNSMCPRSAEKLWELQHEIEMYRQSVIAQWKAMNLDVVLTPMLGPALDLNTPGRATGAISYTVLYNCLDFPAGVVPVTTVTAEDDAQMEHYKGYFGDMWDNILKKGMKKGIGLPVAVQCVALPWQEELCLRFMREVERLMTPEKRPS

SMILES | pIC50 [1] | Papp at 18 h [2] [×10⁻⁶ cm/s] | pIC50 (Monoglyceride lipase) | inhibition [3] | inhibition [4] | inhibition [5] | inhibition [6] | pIC50 [7]
O=C(Oc1ccc([N+](=O)[O-])cc1)N1CCN(S(=O)(=O)c2ccc(Oc3ncc(C(F)(F)F)cc3Cl)cc2)CC1 | 5.53 | 0.23 |  |  |  |  |  | 
CCCCc1ccc(S(=O)(=O)N2CCN(C(=O)Oc3ccc([N+](=O)[O-])cc3)CC2)cc1 | 6.75 | 0.26 | 6.12 | Active | Active | Active | Active | 
O=C(Oc1ccc([N+](=O)[O-])cc1)N1CCN(S(=O)(=O)c2ccc(Oc3ccc(Cl)cc3)cc2)CC1 | 6.82 | 0.24 | 5.69 |  |  |  |  | 
O=C(Oc1ccc([N+](=O)[O-])cc1)N1CCN(S(=O)(=O)c2ccc3ccccc3c2)CC1 |  | 0.26 | 6.55 | 100% | 100% | Active | Active | 7.98
O=C(Oc1ccc([N+](=O)[O-])cc1)N1CCN(S(=O)(=O)c2ccc(Oc3ccccc3Cl)cc2)CC1 | 5.94 | 0.27 |  |  |  |  |  | 

Now from value to compound, other results behind:

pIC50 [1] | Papp at 18 h [2] [×10⁻⁶ cm/s] | SMILES | pIC50 (Monoglyceride lipase) | inhibition [3] | inhibition [4] | inhibition [5] | inhibition [6] | pIC50 [7]
6.42 | 0.23 | O=C(Oc1ccc([N+](=O)[O-])cc1)N1CCN(S(=O)(=O)c2ccc(Oc3cccc(Cl)c3)cc2)CC1 |  |  |  |  |  | 
6.42 | 0.28 | O=C(Oc1ccc([N+](=O)[O-])cc1)N1CCN(S(=O)(=O)c2ccc(-c3ccc(Cl)c(Cl)c3)cc2)CC1 |  |  |  |  |  | 
6.48 | 0.24 | O=C(Oc1ccc([N+](=O)[O-])cc1)N1CCN(S(=O)(=O)c2ccc(C3CCCCC3)cc2)CC1 |  |  |  |  |  | 
6.50 | 0.31 | O=C(Oc1ccc([N+](=O)[O-])cc1)N1CCN(S(=O)(=O)c2ccc(Oc3ccc(Cl)c(Cl)c3)cc2)CC1 |  |  |  |  |  | 
6.36 | 0.19 | O=C(Oc1ccc([N+](=O)[O-])cc1)N1CCN(S(=O)(=O)c2ccc(-c3ccccc3)cc2)CC1 |  |  |  |  |  | 
6.49 | 0.23 | O=C(Oc1ccc([N+](=O)[O-])cc1)N1CCN(S(=O)(=O)c2ccc(Oc3ccccc3)cc2)CC1 |  |  |  |  |  | 
